These results are taken from ChEMBL document CHEMBL3992485 (Medchemcomm, 2016).

Structures are written as SMILES. Active and inactive are the calls of the source. The rule behind the calls is not given here.

One data set has as its system A549. Nature of the data set: Antiproliferative activity against human A549 cells measured after 24 hrs by MTT assay. The data set is classed as functional, cell-based. Particulars: A549, 24 h. Background: Formazan colour is commonly taken as a measure of viable cells.
The subject of data set [1] is HeLa. The experiment in a line: Antiproliferative activity against human HeLa cells measured after 24 hrs by MTT assay. The data set is classed as functional, cell-based.
For another data set, the system named is HepG2. Nature of the data set: Antiproliferative activity against human HepG2 cells measured after 24 hrs by MTT assay. The data set is classed as functional, cell-based. As to conditions: HepG2, 24 h.
Data set [2] can be described thus: Inhibition of tubulin polymerization in bovine brain assessed as reduction in tubulin assembly after 20 mins by spectrophotometric method. Further details: species or system Bos taurus.
The nature of data set [3]: Antiproliferative activity against human 293T cells measured after 24 hrs by MTT assay. It counts as cell-based. Particulars: 293T (HEK-293T) cells.
For the next data set, the system named is MCF7. Nature of the data set: Antiproliferative activity against human MCF7 cells measured after 24 hrs by MTT assay. The data set is classed as functional, cell-based. As to conditions: MCF7, 24 h.
For data set [4], the system named is HeLa. The experiment in a line: Inhibition of microtubule polymerization in human HeLa cells at 0.2 uM after 24 hrs by DAPI staining based confocal microscopic analysis. The data set is classed as cell-based.

Turning to `O=C(c1cn(Cc2ccccc2)c2ccccc12)N1CCN(S(=O)(=O)c2ccc([N+](=O)[O-])cc2)CC1`, the half-maximal inhibitory concentration (IC50) (commonly the concentration needed to halve the response being measured) in the data set on A549 was over 100 µM; in the data set on HeLa [1], 42.9 µM; in the data set with HepG2, over 100 µM; in data set [2], 6.84 µM; in the data set on MCF7 it was 50.6 µM. Moreover, the CC50 (commonly the concentration giving 50% cytotoxicity) at 24 h in data set [3] amounted to 347 µM.
`O=C(c1cn(Cc2ccccc2)c2ccccc12)N1CCN(S(=O)(=O)c2ccc(Cl)cc2)CC1`: the half-inhibitory concentration (IC50) with A549 was 54.8 µM; in the data set with HeLa [1] it was over 100 µM; with HepG2, over 100 µM; in data set [2] it was 6.01 µM; in the data set with MCF7, 46.6 µM. Also, the CC50 at 24 h in data set [3] amounted to 472 µM.
Take `CCn1cc(C(=O)N2CCN(S(=O)(=O)c3ccc(Cl)cc3)CC2)c2ccccc21`: the IC50 in the data set on A549 was over 100 µM; in the data set with HeLa [1] it was over 100 µM; in the data set with HepG2, 36.8 µM; in data set [2], 44.9 µM; with MCF7, 46.6 µM. In data set [3], it took 275 µM to reach half-maximal cytotoxicity (CC50 at 24 h).
`CCn1cc(C(=O)N2CCN(S(=O)(=O)c3ccccc3)CC2)c2ccccc21`: the IC50 in the data set on A549 is over 100 µM; in the data set on HeLa [1], 15.8 µM; in the data set with HepG2, 14.8 µM; in data set [2], 3.75 µM; in the data set with MCF7, 22.7 µM. For the same compound, the 50% cytotoxic concentration (CC50) at 24 h in data set [3] was determined as 366 µM.
On to `CCCn1cc(C(=O)N2CCN(S(=O)(=O)c3ccc(Br)cc3)CC2)c2ccccc21`, for which the 50% inhibitory concentration (IC50) in the data set on A549 turned out to be 39.8 µM; in the data set with HeLa [1] it was 27.5 µM; in the data set on HepG2, 44.9 µM; in data set [2] it was 27.5 µM; in the data set with MCF7 it was 64.8 µM. For the same compound, the CC50 at 24 h in data set [3] came to 463 µM.
In the case of `CCn1cc(C(=O)N2CCN(S(=O)(=O)c3ccc(Br)cc3)CC2)c2ccccc21`, the IC50 in the data set on A549 was 48.4 µM; in the data set with HeLa [1], 32.9 µM; in the data set on HepG2, 26.6 µM; in data set [2], 4.87 µM; with MCF7 it was 27.6 µM. The same compound yielded a CC50 at 24 h in data set [3] of 354 µM.
On to `CCCn1cc(C(=O)N2CCN(S(=O)(=O)c3ccc(C)cc3)CC2)c2ccccc21`, for which the half-inhibitory concentration (IC50) is 14.7 µM in the data set with A549; 10.7 µM with HeLa [1]; 24.9 µM with HepG2; 3.15 µM in data set [2]; 16.8 µM with MCF7. In data set [3], this compound yielded a cytotoxic concentration (CC50) at 24 h of 357 µM.
Take `COc1cc2c(c(OC)c1OC)-c1ccc(OC)c(=O)cc1[C@@H](NC(C)=O)CC2` [COLCHICINE]: the IC50 is 0.47 µM in the data set with A549, 0.45 µM in the data set with HeLa [1], 0.64 µM in the data set with HepG2 and 0.54 µM in the data set on MCF7. In addition, the inhibition result in the data set with HeLa [4] was “Active”. Besides, in data set [3], the CC50 at 24 h is 152 µM.
Turning to `CCCn1cc(C(=O)N2CCN(S(=O)(=O)c3ccccc3)CC2)c2ccccc21`, the concentration for half-maximal inhibition (IC50) was 23.6 µM in the data set on A549; over 100 µM with HeLa [1]; 29.7 µM in the data set on HepG2; 48.9 µM in data set [2]; 23.6 µM in the data set on MCF7. This compound also returned a CC50 at 24 h in data set [3] of 485 µM.
In the case of `Cc1ccc(S(=O)(=O)N2CCN(C(=O)c3cn(C)c4ccccc34)CC2)cc1`, the IC50 in the data set with A549 is 7.43 µM; in the data set on HeLa [1], 3.65 µM; in the data set on HepG2 it was 1.83 µM; in data set [2], 2.15 µM; in the data set on MCF7, 6.53 µM. Besides, the CC50 at 24 h in data set [3] was found to be 353 µM.
Regarding `CC(=O)O[C@H]1C(=O)[C@@]2(C)[C@H]([C@H](OC(=O)c3ccccc3)[C@]3(O)C[C@H](OC(=O)[C@H](O)[C@@H](NC(=O)c4ccccc4)c4ccccc4)C(C)=C1C3(C)C)[C@]1(OC(C)=O)CO[C@@H]1C[C@@H]2O`, the inhibition entry in the data set with HeLa [4] is “inactive”.
On to `CC(C)c1cc(C(C)C)c(S(=O)(=O)N2CCN(C(=O)c3cn(C)c4ccccc34)CC2)c(C(C)C)c1`, for which the IC50 stood at 0.94 µM in the data set on A549; 0.37 µM with HeLa [1]; 0.45 µM in the data set with HepG2; 1.97 µM in data set [2]; 0.63 µM in the data set with MCF7. The same compound showed a cytotoxic concentration (CC50) at 24 h in data set [3] of 383 µM.
As for `Cn1cc(C(=O)N2CCN(S(=O)(=O)c3ccccc3)CC2)c2ccccc21`, the IC50 came out at 15.5 µM in the data set on A549; 7.76 µM in the data set with HeLa [1]; 4.54 µM with HepG2; 2.76 µM in data set [2]; 9.43 µM with MCF7. Moreover, the CC50 at 24 h in data set [3] worked out at 314 µM.
On to `CCCn1cc(C(=O)N2CCN(S(=O)(=O)c3c(C(C)C)cc(C(C)C)cc3C(C)C)CC2)c2ccccc21`, for which the concentration for half-maximal inhibition (IC50) in the data set with A549 was 17.5 µM; with HeLa [1] it was 14.9 µM; with HepG2, 16.8 µM; in data set [2] it was 2.87 µM; with MCF7, 11.6 µM. In addition, half-maximal cytotoxicity in data set [3] (CC50 at 24 h) was put at 311 µM.
In the case of `Cn1cc(C(=O)N2CCN(S(=O)(=O)c3ccc(Cl)cc3)CC2)c2ccccc21`, the half-maximal inhibitory concentration (IC50) with A549 was found to be 25.3 µM; in the data set with HeLa [1] it was 11.7 µM; in the data set on HepG2, 16.3 µM; in data set [2], 3.34 µM; in the data set with MCF7, 29.5 µM. Moreover, the CC50 at 24 h in data set [3] was found to be 257 µM.
`Cc1ccc(S(=O)(=O)N2CCN(C(=O)c3cn(Cc4ccccc4)c4ccccc34)CC2)cc1`: the IC50 is 17 µM with A549; 10 µM with HeLa [1]; 33.2 µM with HepG2; 3.02 µM in data set [2]; 18.7 µM in the data set on MCF7. The CC50 at 24 h in data set [3] turned out to be 321 µM.
As for `CCCn1cc(C(=O)N2CCN(S(=O)(=O)c3ccc([N+](=O)[O-])cc3)CC2)c2ccccc21`, the half-maximal inhibitory concentration (IC50) with A549 was over 100 µM; in the data set on HeLa [1] it was over 100 µM; in the data set on HepG2, over 100 µM; in data set [2], 44.8 µM; in the data set on MCF7, over 100 µM. The midpoint of cytotoxicity in data set [3], the CC50 at 24 h, lay at 464 µM.
For `CCn1cc(C(=O)N2CCN(S(=O)(=O)c3ccc(C)cc3)CC2)c2ccccc21`, the IC50 with A549 was determined as 24.7 µM; in the data set with HeLa [1], 12.8 µM; in the data set with HepG2, 7.45 µM; in data set [2], 3.75 µM; with MCF7, 24.6 µM. In data set [3], this compound yielded a CC50 at 24 h of 298 µM.
As for `O=C(c1cn(Cc2ccccc2)c2ccccc12)N1CCN(S(=O)(=O)c2ccc(Br)cc2)CC1`, the IC50 with A549 was over 100 µM; with HeLa [1], 35.6 µM; with HepG2 it was 38.6 µM; in data set [2], 6.74 µM; in the data set with MCF7 it was 37.8 µM. For the same compound, the CC50 at 24 h in data set [3] was determined as 326 µM.
In the case of `CCn1cc(C(=O)N2CCN(S(=O)(=O)c3ccc([N+](=O)[O-])cc3)CC2)c2ccccc21`, the half-maximal inhibitory concentration (IC50) in the data set with A549 was 63.5 µM; in the data set with HeLa [1], 48 µM; in the data set with HepG2 it was 69.3 µM; in data set [2], 5.52 µM; with MCF7, 50.9 µM. In data set [3], this compound came in with a 50% cytotoxic concentration (CC50) at 24 h of 436 µM.
Take `Cn1cc(C(=O)N2CCN(S(=O)(=O)c3ccc(Br)cc3)CC2)c2ccccc21`: the 50% inhibitory concentration (IC50) with A549 came to 6.49 µM; in the data set with HeLa [1], 9.86 µM; in the data set on HepG2, 5.79 µM; in data set [2], 3.96 µM; in the data set with MCF7 it was 17.3 µM. This compound gave a CC50 at 24 h in data set [3] of 295 µM.
As for `CCCn1cc(C(=O)N2CCN(S(=O)(=O)c3ccc(Cl)cc3)CC2)c2ccccc21`, the IC50 with A549 was over 100 µM; with HeLa [1], over 100 µM; with HepG2, 50.6 µM; in data set [2], 45.4 µM; in the data set on MCF7 it was over 100 µM. It took 537 µM to reach half-maximal cytotoxicity in data set [3] (CC50 at 24 h).
On to `O=C(c1cn(Cc2ccccc2)c2ccccc12)N1CCN(S(=O)(=O)c2ccccc2)CC1`, for which the 50% inhibitory concentration (IC50) in the data set with A549 was 22.4 µM; in the data set with HeLa [1] it was 21.1 µM; in the data set with HepG2, 27.9 µM; in data set [2], 5.64 µM; in the data set on MCF7, 35.6 µM. In data set [3], the CC50 at 24 h stood at 262 µM.
Consider `CC(C)c1cc(C(C)C)c(S(=O)(=O)N2CCN(C(=O)c3cn(Cc4ccccc4)c4ccccc34)CC2)c(C(C)C)c1`, for which the half-inhibitory concentration (IC50) with A549 was 10.7 µM; with HeLa [1], 18.3 µM; with HepG2, 17.6 µM; in data set [2] it was 3.64 µM; in the data set with MCF7 it was 14.1 µM. Moreover, in data set [3], the half-maximal cytotoxic concentration (CC50) at 24 h was 295 µM.
Take `Cn1cc(C(=O)N2CCN(S(=O)(=O)c3ccc([N+](=O)[O-])cc3)CC2)c2ccccc21`: the IC50 in the data set with A549 is 44.6 µM; in the data set on HeLa [1], 15.6 µM; in the data set on HepG2 it was 28 µM; in data set [2] it was 3.56 µM; with MCF7, 32.6 µM. Also, the 50% cytotoxic concentration (CC50) at 24 h in data set [3] amounted to 374 µM.
